The target in series [1] is T1, dihydrofolate reductase (DHFR) (Mus musculus, UniProt P00375).
T1 sequence (P00375 1-187): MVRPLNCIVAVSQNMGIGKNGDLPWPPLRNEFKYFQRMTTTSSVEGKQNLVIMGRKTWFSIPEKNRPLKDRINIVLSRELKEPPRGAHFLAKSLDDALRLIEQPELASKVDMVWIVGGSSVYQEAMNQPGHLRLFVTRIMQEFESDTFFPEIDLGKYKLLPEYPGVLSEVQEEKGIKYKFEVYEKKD
To be noted: reported, Rosowsky et al., J. Med. Chem. 1986; cited from earlier work.

Series [2] deals with folylpolyglutamate synthetase (FPGS). To be noted: reported, Rosowsky et al., J. Med. Chem. 1986; cited from earlier work.
A further series relates to cell growth in culture. To be noted: reported, Rosowsky et al., J. Med. Chem. 1986; cited from earlier work.

For the compound `NCCC[C@H](NC(=O)c1ccc(NCc2cnc3nc(N)nc(N)c3n2)cc1)C(=O)O` [APA-L-Orn, N^α-(4-amino-4-deoxypteroyl)-L-ornithine], in series [1], the “Inhibition of dihydrofolate reductase (DHFR)” value was “potent inhibitor”. Moreover, the “Inhibition of folylpolyglutamate synthetase (FPGS)” value in series [2] is recorded as “potent inhibitor”. Further, in the series on cell growth in culture, the “Inhibition of cell growth in culture” value was “relatively inactive”.
`N.N.Nc1nc(N)c2nc(CNc3ccc(C(=O)N[C@@H](CCCNC(=O)c4ccccc4C(=O)O)C(=O)O)cc3)cnc2n1` [compound 8, N^α-(4-Amino-4-deoxypteroyl)N^δ-hemiphthaloyl-L-ornithine ammonium salt]: the “Product decomposition on lyophilization of the ammonium hydroxide solution” value (lyophilization of dilute ammonium hydroxide solution) is recorded as “minimal”.
Consider `Nc1nc(N)c2nc(CNc3ccc(C(=O)N[C@@H](CCCNC(=O)c4ccccc4C(=O)O)C(=O)O)cc3)cnc2n1` [compound 7, N^α-(4-Amino-4-deoxypteroyl)-N^δ-hemiphthaloyl-L-ornithine], for which, where the note is “dilute ammonium hydroxide solution”, the “Stability when dissolved in dilute ammonium hydroxide” value is recorded as “relatively stable”.

Values taken from patent US6989386B2, “Pharmaceutically active ornithine derivatives, ammonium salts thereof and methods of making same” (Dana-Farber Cancer Institute, priority 2002, dated 2006).
